Test results from US7767398B2, “Means and methods for diagnosing and treating affective disorders” (Affectis Pharmaceuticals AG, priority 2003, dated 2010).

How the values were obtained:
mice [1] = assay: Porsolt's forced swim test; type: in vivo, mouse; settings: 50 μM BzATP, 1 μl each side intrahippocampal, 24 hours after injection, DBA/2OIa mice
Procedure: Further validation of role of P2X7R in affective disorders was performed by examining its expression pattern in response to stress and treatment with antidepressant drugs. […] In parallel, a control group of mice was given vehicle solution (i.e. without paroxetine) using the same treatment regiment while a second control group of mice was left undisturbed and stress-free (i.e. untreated) during the same period of the experiments. At the end of the long-term treatment, part of the mice of each experimental group were tested in the dark/light box (test of anxiety behaviour) and in the Porsolt's forced swim test (test of depressive-like behaviour) to confirm the effectiveness of the treatment (FIG. 5). […] The other part of the experimental groups (i.e. mice without test experience) were decapitated, brains rapidly removed and frozen at −80° C. until usage.
The effects of P2X7R inhibition on depressive-like behaviour was assessed 24 hours and 48 hours after infusion of siRNA, control or vehicle according to the standard test paradigm, the Porsolt's forced swim test (Porsolt et al., Arch. Int. Pharmacodym. 229 (1977), 327-336; Porsolt, Rev. Neurosci. 11 (2000), 53-58). […] Compared to vehicle application, no influence of control double stranded RNA (5′-[…]-3′) on floating behaviour (passive stress coping) was detected. […] This interpretation becomes moreover evident when the effects of antidepressants on passive stress coping behaviour in the forced swim test are visualized (FIG. 5). Passive stress coping behaviour increased after acute intrahippocampal injection (bilateral, dentate gyrus) of siRNA targeting P2X7R. The Porsolt's forced swim test is a standard test used to assess the effectiveness of antidepressants and it has been proven by many studies that the test is selectively sensitive for these effects, given that the right animal model is used. The paradigm has been widely used to test pharmaceutical compounds and to validate animal models of depression, which show an increase in passive behaviour as do the mice where P2X7R has been inhibited (siRNA).
The forced swim test is a standard test that measures primary stress-induced reductions in avoidance or escape, termed behavioural despair. The test is used to determine the effectiveness of antidepressants, test new pharmaceutical compounds and validate animal models of depression (Porsolt et al., Arch. Int. Pharmacodym. 229 (1977), 327-336; Porsolt, Rev. Neurosci. 11 (2000), 53-58; Rénéric et al., Behav. Brain Res. 136 (2002), 521-532; Page et al., Psychopharmacology 165 (2003), 194-201; Kelliher et al., Psychoneuroendocrinology 28 (2003), 332-347). The test consists of placing a mouse for a period of 5 minutes into a glass cylinder containing water. Under such circumstances, the mouse cannot touch the bottom of the cylinder and is thus forced to swim. Time, latency and frequency of struggling versus floating are scored as behavioural parameters. […] Increased struggling (i.e. active attempts to escape) indicates active coping behaviour that can be interpreted as an improvement of depression-like symptoms. For example, treatment with serotonergic antidepressants reduce the total time spent floating (Borsini, Neurosci. Biobehav. Rev. 19 (1995), 377-395; Redrobe and Bourin, Psychopharmacology 138 (1998), 198-206, and in parallel increases the time of active behaviour (i.e. swimming or struggling; Lucki et al., Psychopharmacology 155 (2001), 315-322).
The behaviour of individual mice was assessed using the Porsolt's forced swim test 24 hours after injection of vehicle solution, KN-62, or oATP. A pre-exposure of 5 minutes to the test was performed 15-17 minutes after administration of vehicle, KN-62, or oATP. A description of the Porsolt's forced swim test is given in example 9. […]

mice [2] = assay: Open field test (locomotor activity); settings: 50 μM BzATP, 24 hours after injection, vs vehicle
Procedure: Locomotor activity was monitored for a period of 30 minutes using a video camera. Overall distance traveled by the animals during the testing period was then analysed by means of VideoMot2 computer software (TSE GmbH, Bad Homburg).

Substance: 2′-3′-O-(4-Benzoylbenzoyl)adenosine 5′-triphosphate [BzATP]
- passive behaviour (time, frequency, latency of floating) in the forced swim test (mice [1]; latency and frequency of floating statistically significant): decrease
- active escape attempts (time, frequency, latency of struggling) in the forced swim test (mice [1]; time struggling statistically significant): increase
- locomotor activity (overall distance traveled, 30 minutes) (mice [2]): No difference in locomotor activity
